In PMC11178787, “Development of a natural product optimization strategy for inhibitors against MraY, a promising antibacterial target” (Nature Communications, 2024) one finds CC50, MIC and IC50 data, which are given here for three compounds.

One series is described as follows: in vitro. As to conditions: human, hepg2 cells; read-out: IC50. More on the design: WST-8 cell viability assay in HepG2 cells. On the procedure:
Cells were regularly passed to maintain exponential growth. HepG2 cells were sowed by 1.0 × 10^4 cells for each well in 96-well plate and cultured at 37 °C under 5% CO2 in air for 24 h. The cells were treated with a solution of test compounds in DMSO at various concentration and incubated at 37 °C under 5% CO2 in air for 24 h. After that, the WST-8 (Dojindo) cell proliferation assay was used. Cell viability was indicated as a percentage of the negative control (cells treated with DMSO only) and that value was fixed at 100%.

In another series the test system is T1, Enterococcus faecalis 28.
T1 construct: 28
The experiment in a line: microbe, parasite or virus in culture. More on the design: CLSI broth microdilution MIC in MHB-II. As to conditions: Enterococcus faecalis, 28, 18 h, read-out: MIC. As for the experimental part:
(§1) MICs were determined by a microdilution broth method as recommended by the CLSI with MHB-II. For MICs of stable analogues, a 2-fold dilution of each compound was prepared in DMSO at 100-fold of the final concentration. The strains were inoculated with 5 × 10^5 cfu/mL in 96-well plates (each 100 μL/well), and 1 μL of DMSO solutions of the samples were added (contained less than 1% DMSO). The plates were incubated at 37 °C for 18 h and then MICs were determined. MICs of stable analogues in Table 1 were the highest value in three trials. MICs in Supplementary Table 1 were determined in one trial.

Another series relates to Enterococcus faecium 1. The experiment in a line: microbe, parasite or virus in culture. Set-up: CLSI broth microdilution MIC in MHB-II. The conditions noted are these: Enterococcus faecium, 1, 18 h, read-out: MIC. On the procedure: as §1
In series [1] the test system is T2, Staphylococcus aureus #2931.
T2 construct: #2931
The experiment in a line: microbe, parasite or virus in culture. More on the design: CLSI broth microdilution MIC in MHB-II. The conditions noted are these: Staphylococcus aureus, 18 h, read-out: MIC. As for the experimental part:
as §1

In another series the test system is Enterococcus faecium 4. As to the kind of experiment: microbe, parasite or virus in culture. Set-up: CLSI broth microdilution MIC in MHB-II. The conditions noted are these: Enterococcus faecium, 4, 18 h, read-out: MIC. As for the experimental part:
as §1

In series [2] the test system is T3, Staphylococcus aureus #2933.
T3 construct: #2933
The experiment in a line: microbe, parasite or virus in culture. More on the design: CLSI broth microdilution MIC in MHB-II. As to conditions: Staphylococcus aureus, 18 h, read-out: MIC. As for the experimental part: as §1

Series [3] relates to T4, Staphylococcus aureus #2934.
T4 construct: #2934
As to the kind of experiment: microbe, parasite or virus in culture. More on the design: CLSI broth microdilution MIC in MHB-II. As to conditions: Staphylococcus aureus, 18 h, read-out: MIC. On the procedure: as §1

Another series deals with T5, Enterococcus faecalis 22.
T5 construct: 22
As to the kind of experiment: microbe, parasite or virus in culture. The conditions noted are these: Enterococcus faecalis, 22, 18 h, read-out: MIC. More on the design: CLSI broth microdilution MIC in MHB-II. On the procedure:
as §1

The subject of series [4] is T6, Staphylococcus aureus #2071.
T6 construct: #2071
The experiment in a line: microbe, parasite or virus in culture. Set-up: CLSI broth microdilution MIC in MHB-II. As to conditions: Staphylococcus aureus, 18 h, read-out: MIC. As for the experimental part: as §1

The subject of another series is Enterococcus faecium 8. As to the kind of experiment: microbe, parasite or virus in culture. More on the design: CLSI broth microdilution MIC in MHB-II. As to conditions: Enterococcus faecium, 8, 18 h, read-out: MIC. As for the experimental part: as §1
The subject of series [5] is T7, Staphylococcus aureus #2334.
T7 construct: #2334
The experiment in a line: microbe, parasite or virus in culture. More on the design: CLSI broth microdilution MIC in MHB-II. As to conditions: Staphylococcus aureus, 18 h, read-out: MIC. As for the experimental part: as §1

The subject of a further series is Enterococcus faecium 5. As to the kind of experiment: microbe, parasite or virus in culture. The conditions noted are these: Enterococcus faecium, 5, 18 h, read-out: MIC. Set-up: CLSI broth microdilution MIC in MHB-II. As for the experimental part: as §1
Another series concerns T8, Enterococcus faecalis 21.
T8 construct: 21
As to the kind of experiment: microbe, parasite or virus in culture. Set-up: CLSI broth microdilution MIC in MHB-II. As to conditions: Enterococcus faecalis, 21, 18 h, read-out: MIC. On the procedure: as §1

In series [6] the test system is T9, Staphylococcus aureus #1958.
T9 construct: #1958
The experiment in a line: microbe, parasite or virus in culture. More on the design: CLSI broth microdilution MIC in MHB-II. The conditions noted are these: Staphylococcus aureus, 18 h, read-out: MIC. As for the experimental part:
as §1

Series [7] relates to T10, Staphylococcus aureus #2110.
T10 construct: #2110
The experiment in a line: microbe, parasite or virus in culture. Set-up: CLSI broth microdilution MIC in MHB-II. As to conditions: Staphylococcus aureus, 18 h, read-out: MIC. On the procedure:
as §1

Another series addresses MraYSA (S. aureus MraY) (Staphylococcus aureus, UniProt Q2FZ93). As to the kind of experiment: fluorescence assay of dansylated lipid I formation. The series is classed as biochemical.
The subject of series [8] is T11, E. faecium(VRE) ATCC 51858.
T11 construct: ATCC 51858 (VRE)
The experiment in a line: microbe, parasite or virus in culture. Set-up: CLSI broth microdilution MIC in MHB-II, single trial. As to conditions: Enterococcus faecium, 18 h. As for the experimental part: as §1

In a further series the test system is T12, E. faecium ATCC 35667.
T12 construct: ATCC 35667
The experiment in a line: microbe, parasite or virus in culture. Set-up: CLSI broth microdilution MIC in MHB-II, single trial. The conditions noted are these: Enterococcus faecium, ATCC35667, 18 h. As for the experimental part:
as §1

In series [9] the test system is T13, Staphylococcus aureus MRSA JE2.
T13 construct: JE2 (MRSA)
As to the kind of experiment: microbe, parasite or virus in culture. Set-up: CLSI broth microdilution MIC in MHB-II, single trial. As to conditions: 18 h. On the procedure:
as §1

The next series concerns T14, S. aureus ATCC 29213.
T14 construct: ATCC 29213
As to the kind of experiment: microbe, parasite or virus in culture. As to conditions: Staphylococcus aureus, ATCC29213, 18 h. Set-up: CLSI broth microdilution MIC in MHB-II, single trial. On the procedure:
as §1

Series [10] has as its system T15, E. faecalis(VRE) ATCC 51299.
T15 construct: ATCC 51299 (VRE)
The experiment in a line: microbe, parasite or virus in culture. As to conditions: Enterococcus faecalis, 18 h. More on the design: CLSI broth microdilution MIC in MHB-II, single trial. On the procedure:
as §1

Series [11] deals with T16, E. faecium(VRE) ATCC 51559.
T16 construct: ATCC 51559 (VRE)
The experiment in a line: microbe, parasite or virus in culture. Set-up: CLSI broth microdilution MIC in MHB-II, single trial. The conditions noted are these: Enterococcus faecium, 18 h. On the procedure: as §1

The test system of series [12] is T17, Staphylococcus aureus #2935.
T17 construct: #2935
As to the kind of experiment: microbe, parasite or virus in culture. The conditions noted are these: Staphylococcus aureus, 18 h, read-out: MIC. More on the design: CLSI broth microdilution MIC in MHB-II. On the procedure:
as §1

Each structure is given as a SMILES string. In brackets after ≈: the same amount, converted by molar mass. Where two headings read alike, the source gives them in different places.

The term IC50 denotes the point on the concentration scale where inhibition reaches its midpoint. Read a low IC50 as higher potency.

Chain of MraYSA (S. aureus MraY) (Q2FZ93 whole entry): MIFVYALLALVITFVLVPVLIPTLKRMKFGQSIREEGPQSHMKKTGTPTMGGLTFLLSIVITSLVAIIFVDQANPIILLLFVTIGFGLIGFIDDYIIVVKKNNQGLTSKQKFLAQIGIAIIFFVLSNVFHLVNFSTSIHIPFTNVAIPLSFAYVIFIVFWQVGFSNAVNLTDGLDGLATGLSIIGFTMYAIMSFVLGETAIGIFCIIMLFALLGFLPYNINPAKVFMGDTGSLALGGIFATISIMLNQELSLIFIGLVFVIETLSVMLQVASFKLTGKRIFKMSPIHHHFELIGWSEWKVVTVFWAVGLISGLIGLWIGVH

In the case of `CCCCCCCCCCCCCCCC(=O)N[C@@H](CCCNC(=N)N)C(=O)Nc1ccc(CN[C@H](C(=O)O)[C@H](O[C@@H]2O[C@H](CN)[C@@H](O)[C@H]2O)[C@H]2O[C@@H](n3ccc(=O)[nH]c3=O)[C@H](O)[C@@H]2O)cc1` [compound 7, analogue 7], in the series “in vitro”, the CC50 at 24 h was 25 µM. Further, the MIC in the series on Enterococcus faecalis 28 was less than 0.06 µg/mL; with Enterococcus faecium 1, 1 µg/mL (≈ 1.05 µM); in series [1], 1 µg/mL (≈ 1.05 µM); with Enterococcus faecium 4, 0.5 µg/mL (≈ 0.527 µM); in series [2], 1 µg/mL (≈ 1.05 µM); in series [3], 1 µg/mL (≈ 1.05 µM). Also, the MIC amounted to 0.13 µg/mL (≈ 0.137 µM) in the series on Enterococcus faecalis 22; 1 µg/mL (≈ 1.05 µM) in series [4]; 0.5 µg/mL (≈ 0.527 µM) in the series on Enterococcus faecium 8; 2 µg/mL (≈ 2.11 µM) in [5]; 0.5 µg/mL (≈ 0.527 µM) with Enterococcus faecium 5; 0.5 µg/mL (≈ 0.527 µM) with Enterococcus faecalis 21. In addition, the MIC amounted to 1 µg/mL (≈ 1.05 µM) in series [6]; 2 µg/mL (≈ 2.11 µM) in series [7]; 2 µg/mL (≈ 2.11 µM) in series [8] (read-out: 7 MIC); 0.5 µg/mL (≈ 0.527 µM) in the series on E. faecium ATCC 35667 (read-out: 7 MIC); 1 µg/mL (≈ 1.05 µM) in series [9] (read-out: 7 MIC); 1 µg/mL (≈ 1.05 µM) in the series with S. aureus ATCC 29213 (read-out: 7 MIC). In addition, the MIC in [10] (read-out: 7 MIC) and in [11] (read-out: 7 MIC) was 0.5 µg/mL (≈ 0.527 µM) each time. Besides, the IC50 at MraYSA (S. aureus MraY) came out at 0.0017 µM.
Take `C[C@H]1COc2c(N3CCN(C)CC3)c(F)cc3c(=O)c(C(=O)O)cn1c23` [levofloxacin]: the MIC with Enterococcus faecalis 28 was 1 µg/mL (≈ 2.77 µM); in the series with Enterococcus faecium 1 it was more than 32 µg/mL; in series [1], 16 µg/mL (≈ 44.3 µM); in the series on Enterococcus faecium 4, more than 32 µg/mL; in series [2], more than 32 µg/mL; in series [3] it was more than 32 µg/mL. The MIC in the series on Enterococcus faecalis 22 is 1 µg/mL (≈ 2.77 µM); in series [4], 0.13 µg/mL (≈ 0.36 µM); in the series on Enterococcus faecium 8, more than 32 µg/mL; in [5], more than 32 µg/mL; in the series with Enterococcus faecium 5, 32 µg/mL (≈ 88.6 µM); with Enterococcus faecalis 21 it was 0.5 µg/mL (≈ 1.38 µM). The MIC in series [12] is more than 32 µg/mL; in series [6], more than 32 µg/mL; in series [7], more than 32 µg/mL; in series [8] (read-out: levofloxacin MIC) it was 4 µg/mL (≈ 11.1 µM); in the series with E. faecium ATCC 35667 (read-out: levofloxacin MIC), 4 µg/mL (≈ 11.1 µM); in series [9] (read-out: levofloxacin MIC) it was 8 µg/mL (≈ 22.1 µM). Further, the MIC worked out at 0.13 µg/mL (≈ 0.36 µM) with S. aureus ATCC 29213 (read-out: levofloxacin MIC), 1 µg/mL (≈ 2.77 µM) in [10] (read-out: levofloxacin MIC) and 16 µg/mL (≈ 44.3 µM) in series [11] (read-out: levofloxacin MIC).
Consider `CN[C@H](CC(C)C)C(=O)N[C@H]1C(=O)N[C@@H](CC(N)=O)C(=O)N[C@H]2C(=O)N[C@H]3C(=O)N[C@H](C(=O)N[C@H](C(=O)O)c4cc(O)cc(O)c4-c4cc3ccc4O)[C@H](O)c3ccc(c(Cl)c3)Oc3cc2cc(c3O[C@@H]2O[C@H](CO)[C@@H](O)[C@H](O)[C@H]2O[C@H]2C[C@](C)(N)[C@H](O)[C@H](C)O2)Oc2ccc(cc2Cl)[C@H]1O` [vancomycin], for which the MIC (in the series with Enterococcus faecalis 28; in the series with Enterococcus faecium 1; in series [1]; in the series with Enterococcus faecium 4; in [2]; in [3]) was 1 µg/mL (≈ 0.69 µM) throughout. Moreover, the MIC in the series on Enterococcus faecalis 22 came out at 1 µg/mL (≈ 0.69 µM); with Enterococcus faecium 8, 1 µg/mL (≈ 0.69 µM); in series [5] it was 2 µg/mL (≈ 1.38 µM); with Enterococcus faecium 5 it was 1 µg/mL (≈ 0.69 µM); in the series with Enterococcus faecalis 21 it was 1 µg/mL (≈ 0.69 µM); in [6], 1 µg/mL (≈ 0.69 µM). The MIC in series [7] amounted to 2 µg/mL (≈ 1.38 µM); in series [8] (read-out: vancomycin MIC) it was 128 µg/mL (≈ 88.3 µM); with E. faecium ATCC 35667 (read-out: vancomycin MIC), 1 µg/mL (≈ 0.69 µM); in series [9] (read-out: vancomycin MIC), 1 µg/mL (≈ 0.69 µM); in the series with S. aureus ATCC 29213 (read-out: vancomycin MIC) it was 1 µg/mL (≈ 0.69 µM); in series [10] (read-out: vancomycin MIC), 128 µg/mL (≈ 88.3 µM). In addition, the MIC in [11] (read-out: vancomycin MIC) is more than 128 µg/mL.
